In patent publication US12679878B2, “CRF2 receptor agonists and their use in therapy” (SANOFI, priority 2020, dated 2026):
Read-outs that look alike come from different tables or passages of the source. Starred links: 1 amine or outer side, 2 acyl side, 3 side chain; linkers in the order of their positions; H or OH if unused. Non-standard residues stand in square brackets, D forms with d. Residues, ends and D or L forms follow the SMILES beside them. Groups on a side chain read outwards from the residue. *: point of attachment. C18 diacid = O=C(O)CCCCCCCCCCCCCCCCC(=O)*; γGlu = O=C(O)[C@H](CCC(=O)[*:2])N[*:1]; AEEA = NCCOCCOCC(=O)O; Aib = CC(C)(N)C(=O)O

Target: T1, human CRF2α receptor (Homo sapiens, UniProt Q13324)
T1 construct: expressed in transfected cells; host or cells: TeloHEAC
T1 sequence (Q13324 1-411): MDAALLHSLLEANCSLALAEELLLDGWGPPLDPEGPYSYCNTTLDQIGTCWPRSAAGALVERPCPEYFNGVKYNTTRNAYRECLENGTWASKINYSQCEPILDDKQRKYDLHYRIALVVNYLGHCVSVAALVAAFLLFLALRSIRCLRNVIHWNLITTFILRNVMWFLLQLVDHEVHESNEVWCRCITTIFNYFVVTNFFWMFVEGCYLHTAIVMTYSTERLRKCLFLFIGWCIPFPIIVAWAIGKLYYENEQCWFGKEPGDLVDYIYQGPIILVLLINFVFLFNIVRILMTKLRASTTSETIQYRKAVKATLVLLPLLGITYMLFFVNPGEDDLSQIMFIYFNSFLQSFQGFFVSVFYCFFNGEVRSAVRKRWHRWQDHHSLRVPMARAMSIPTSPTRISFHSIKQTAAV
Assay: cAMP agonism at human CRF2 α receptor in TeloHEAC cells (Example 7)
Type: cell-based
Conditions: cAMP HTRF, TeloHEAC cells stably expressing human CRF2 α
How it was run: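 Percent activation was referenced to 1000 nM UCN2 (100%), and EC50 values taken as concentrations giving half of maximal response. The read-out was a homogeneous time-resolved fluorescence cAMP kit, fluorescence ratio 665/620 nm. Thawed cells (2000/well) saw compound for 30 min at RT in buffer with 2 mM IBMX and 0%/0.1% HSA.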

[1] = 0% HSA, read-out: EC50 [nM], 0% HSA
[2] = 0.1% HSA, read-out: EC50 [nM], 0.1% HSA

Row | Structure (SMILES) | EC50 [1] [nM] | EC50 [2] [nM]
1 | CC[C@H](C)[C@H](N)C(=O)N[C@H](C(=O)N[C@@H](CC(C)C)C(=O)N[C@@H](CO)C(=O)N[C@@H](CC(C)C)C(=O)N[C@@H](CC(=O)O)C(=O)N[C@H](C(=O)N1CCC[C@H]1C(=O)N[C@H](C(=O)N[C@@H](CCCCN)C(=O)N[C@@H](CC(C)C)C(=O)N[C@@H](CCCCNC(=O)COCCOCCNC(=O)COCCOCCNC(=O)CC[C@H](NC(=O)CCCCCCCCCCCCCCCCC(=O)O)C(=O)O)C(=O)N[C@@H](CCC(N)=O)C(=O)N[C@H](C(=O)N[C@@H](CC(C)C)C(=O)N[C@@H](CC(C)C)C(=O)N[C@@H](CCC(=O)O)C(=O)N[C@@H](CCC(N)=O)C(=O)N[C@@H](CCC(=O)O)C(=O)N[C@@H](CCCNC(=N)N)C(=O)N[C@@H](CCC(N)=O)C(=O)N[C@@H](CCCCN)C(=O)N[C@@H](CCCCN)C(=O)N[C@@H](CCC(N)=O)C(=O)N[C@@H](CCCNC(=N)N)C(=O)N[C@@H](CCC(=O)O)C(=O)N[C@@H](CCC(N)=O)C(=O)N[C@@H](C)C(=O)N[C@@H](CCC(=O)O)C(=O)N[C@H](C(=O)N[C@@H](CC(N)=O)C(=O)NC(C)(C)C(=O)N[C@@H](CCC(N)=O)C(=O)N[C@H](C(=O)N[C@@H](CC(C)C)C(=O)N[C@@H](C)C(=O)N[C@@H](CCC(N)=O)C(=O)N[C@H](C(N)=O)C(C)C)[C@@H](C)CC)[C@@H](C)O)[C@@H](C)CC)[C@@H](C)O)C(C)C)C(C)C [compound 78] (H-IVLSLDVPTKLK([AEEA-AEEA-γGlu-C18 diacid])QILLEQERQKKQREQAETN[Aib]QILAQV-NH2) | 10.6 | –
2 | CC[C@H](C)[C@H](N)C(=O)N[C@H](C(=O)N[C@@H](CC(C)C)C(=O)N[C@@H](CO)C(=O)N[C@@H](CC(C)C)C(=O)N[C@@H](CC(=O)O)C(=O)N[C@H](C(=O)N1CCC[C@H]1C(=O)N[C@H](C(=O)N[C@@H](CCCCN)C(=O)N[C@@H](CC(C)C)C(=O)N[C@@H](CCCCNC(=O)COCCOCCNC(=O)COCCOCCNC(=O)CC[C@H](NC(=O)CCCCCCCCCCCCCCCCC(=O)O)C(=O)O)C(=O)N[C@@H](CCC(N)=O)C(=O)N[C@H](C(=O)N[C@@H](CC(C)C)C(=O)N[C@@H](CC(C)C)C(=O)N[C@@H](CCCCN)C(=O)N[C@@H](CCC(N)=O)C(=O)N[C@@H](CCC(=O)O)C(=O)N[C@@H](CCCNC(=N)N)C(=O)N[C@@H](CCC(N)=O)C(=O)N[C@@H](CCCCN)C(=O)N[C@@H](CCCCN)C(=O)NC(C)(C)C(=O)N[C@@H](CCCNC(=N)N)C(=O)N[C@@H](CCC(=O)O)C(=O)N[C@@H](CCC(N)=O)C(=O)N[C@@H](C)C(=O)N[C@@H](CCC(=O)O)C(=O)N[C@H](C(=O)N[C@@H](CC(N)=O)C(=O)N[C@H](C(=O)N[C@@H](CCCNC(=N)N)C(=O)N[C@H](C(=O)N[C@@H](CC(C)C)C(=O)N[C@@H](CCC(=O)O)C(=O)N[C@@H](CCCNC(=N)N)C(=O)N[C@H](C(N)=O)C(C)C)[C@@H](C)CC)C(C)C)[C@@H](C)O)[C@@H](C)CC)[C@@H](C)O)C(C)C)C(C)C [compound 82] (H-IVLSLDVPTKLK([AEEA-AEEA-γGlu-C18 diacid])QILLKQERQKK[Aib]REQAETNVRILERV-NH2) | 10.1 | –
3 | CC[C@H](C)[C@H](N)C(=O)N[C@H](C(=O)N[C@@H](CC(C)C)C(=O)N[C@@H](CO)C(=O)N[C@@H](CC(C)C)C(=O)N[C@@H](CC(=O)O)C(=O)N[C@H](C(=O)N1CCC[C@H]1C(=O)N[C@H](C(=O)N[C@@H](CCCCN)C(=O)N[C@@H](CC(C)C)C(=O)N[C@@H](CCCCNC(=O)COCCOCCNC(=O)COCCOCCNC(=O)CC[C@H](NC(=O)CCCCCCCCCCCCCCCCC(=O)O)C(=O)O)C(=O)N[C@@H](CCC(N)=O)C(=O)N[C@@H](CCCCN)C(=O)N[C@@H](CC(C)C)C(=O)N[C@@H](CC(C)C)C(=O)N[C@@H](CCC(=O)O)C(=O)N[C@@H](CCC(N)=O)C(=O)N[C@@H](CCC(=O)O)C(=O)N[C@@H](CCCCN)C(=O)N[C@@H](CCC(N)=O)C(=O)N[C@@H](CCCCN)C(=O)N[C@@H](CCCCN)C(=O)N[C@@H](CCC(N)=O)C(=O)N[C@@H](CCCNC(=N)N)C(=O)N[C@@H](CCC(=O)O)C(=O)N[C@@H](CCC(N)=O)C(=O)N[C@@H](C)C(=O)N[C@@H](CCC(=O)O)C(=O)N[C@H](C(=O)N[C@@H](CC(N)=O)C(=O)N[C@@H](CCCCN)C(=O)N[C@@H](CCC(N)=O)C(=O)N[C@H](C(=O)N[C@@H](CC(C)C)C(=O)N[C@@H](C)C(=O)N[C@@H](CCC(N)=O)C(=O)N[C@H](C(N)=O)C(C)C)[C@@H](C)CC)[C@@H](C)O)[C@@H](C)CC)C(C)C)C(C)C [compound 84] (H-IVLSLDVPIKLK([AEEA-AEEA-γGlu-C18 diacid])QKLLEQEKQKKQREQAETNKQILAQV-NH2; N-terminus assumed) | 1.85 | 61.7
4 | CC[C@H](C)[C@H](N)C(=O)N[C@H](C(=O)N[C@@H](CC(C)C)C(=O)N[C@@H](CO)C(=O)N[C@@H](CC(C)C)C(=O)N[C@@H](CC(=O)O)C(=O)N[C@H](C(=O)N1CCC[C@H]1C(=O)N[C@H](C(=O)N[C@@H](CCCCN)C(=O)N[C@@H](CC(C)C)C(=O)N[C@@H](CCCCNC(=O)COCCOCCNC(=O)COCCOCCNC(=O)CC[C@H](NC(=O)CCCCCCCCCCCCCCCCC(=O)O)C(=O)O)C(=O)N[C@@H](CCC(N)=O)C(=O)N[C@H](C(=O)N[C@@H](CC(C)C)C(=O)N[C@@H](CC(C)C)C(=O)N[C@@H](CCCCN)C(=O)N[C@@H](CCC(N)=O)C(=O)N[C@@H](CCC(=O)O)C(=O)N[C@@H](CCCNC(=N)N)C(=O)N[C@@H](CCC(N)=O)C(=O)N[C@@H](CCCCN)C(=O)N[C@@H](CCCCN)C(=O)N[C@@H](CCC(N)=O)C(=O)N[C@@H](CCCNC(=N)N)C(=O)N[C@@H](CCC(=O)O)C(=O)N[C@@H](CCCCN)C(=O)N[C@@H](C)C(=O)N[C@@H](CCCCN)C(=O)N[C@H](C(=O)N[C@@H](CC(N)=O)C(=O)N[C@H](C(=O)N[C@@H](CCC(N)=O)C(=O)N[C@H](C(=O)N[C@@H](CC(C)C)C(=O)N[C@@H](C)C(=O)N[C@@H](CCC(N)=O)C(=O)N[C@H](C(N)=O)C(C)C)[C@@H](C)CC)C(C)C)[C@@H](C)O)[C@@H](C)CC)[C@@H](C)CC)C(C)C)C(C)C [compound 90] (H-IVLSLDVPIKLK([AEEA-AEEA-γGlu-C18 diacid])QILLKQERQKKQREKAKTNVQILAQV-NH2; N-terminus assumed) | 3.91 | 92.6
5 | CC[C@H](C)[C@H](N)C(=O)N[C@H](C(=O)N[C@@H](CC(C)C)C(=O)N[C@@H](CO)C(=O)N[C@@H](CC(C)C)C(=O)N[C@@H](CC(=O)O)C(=O)N[C@H](C(=O)N1CCC[C@H]1C(=O)N[C@H](C(=O)N[C@@H](CCCCN)C(=O)N[C@@H](CC(C)C)C(=O)N[C@@H](CCCCNC(=O)COCCOCCNC(=O)COCCOCCNC(=O)CC[C@H](NC(=O)CCCCCCCCCCCCCCCCC(=O)O)C(=O)O)C(=O)N[C@@H](CCC(N)=O)C(=O)N[C@@H](CCCCN)C(=O)N[C@@H](CC(C)C)C(=O)N[C@@H](CC(C)C)C(=O)N[C@@H](CCCCN)C(=O)N[C@@H](CCC(N)=O)C(=O)N[C@@H](CCC(=O)O)C(=O)N[C@@H](CCCNC(=N)N)C(=O)N[C@@H](CCC(N)=O)C(=O)N[C@@H](CCCCN)C(=O)N[C@@H](CCCCN)C(=O)N[C@@H](CCC(N)=O)C(=O)N[C@@H](CCCNC(=N)N)C(=O)N[C@@H](CCC(=O)O)C(=O)N[C@@H](CCCCN)C(=O)N[C@@H](C)C(=O)N[C@@H](CCCCN)C(=O)N[C@H](C(=O)N[C@@H](CC(N)=O)C(=O)NC(C)(C)C(=O)N[C@@H](CCC(N)=O)C(=O)N[C@H](C(=O)N[C@@H](CC(C)C)C(=O)N[C@@H](C)C(=O)N[C@@H](CCC(N)=O)C(=O)N[C@H](C(N)=O)C(C)C)[C@@H](C)CC)[C@@H](C)O)[C@@H](C)CC)C(C)C)C(C)C [compound 91] (H-IVLSLDVPIKLK([AEEA-AEEA-γGlu-C18 diacid])QKLLKQERQKKQREKAKTN[Aib]QILAQV-NH2) | 14.3 | –
6 | CC[C@H](C)[C@H](N)C(=O)N[C@H](C(=O)N[C@@H](CC(C)C)C(=O)N[C@@H](CO)C(=O)N[C@@H](CC(C)C)C(=O)N[C@@H](CC(=O)O)C(=O)N[C@H](C(=O)N1CCC[C@H]1C(=O)N[C@H](C(=O)N[C@@H](CCCCN)C(=O)N[C@@H](CC(C)C)C(=O)N[C@@H](CCCCNC(=O)COCCOCCNC(=O)COCCOCCNC(=O)CC[C@H](NC(=O)CCCCCCCCCCCCCCCCC(=O)O)C(=O)O)C(=O)N[C@@H](CCC(N)=O)C(=O)N[C@@H](CCCCN)C(=O)N[C@@H](CC(C)C)C(=O)N[C@@H](CC(C)C)C(=O)N[C@@H](CCC(=O)O)C(=O)N[C@@H](CCC(N)=O)C(=O)N[C@@H](CCC(=O)O)C(=O)N[C@@H](CCCNC(=N)N)C(=O)N[C@@H](CCC(N)=O)C(=O)N[C@@H](CCCCN)C(=O)N[C@@H](CCCCN)C(=O)N[C@@H](CCC(N)=O)C(=O)N[C@@H](CCCNC(=N)N)C(=O)N[C@@H](CCC(=O)O)C(=O)N[C@@H](CCC(N)=O)C(=O)N[C@@H](C)C(=O)N[C@@H](CCC(=O)O)C(=O)N[C@H](C(=O)N[C@@H](CC(N)=O)C(=O)NC(C)(C)C(=O)N[C@@H](CCC(N)=O)C(=O)N[C@H](C(=O)N[C@@H](CC(C)C)C(=O)N[C@@H](C)C(=O)N[C@@H](CCC(N)=O)C(=O)N[C@H](C(N)=O)C(C)C)[C@@H](C)CC)[C@@H](C)O)[C@@H](C)CC)C(C)C)C(C)C [compound 92] (H-IVLSLDVPIKLK([AEEA-AEEA-γGlu-C18 diacid])QKLLEQERQKKQREQAETN[Aib]QILAQV-NH2; N-terminus assumed) | 9.17 | –
